# Laboratory results: EP1976513B1 (priority 2006, dated 2007)
# Read-outs that look alike come from different tables or passages of the source.
# Tests used:
# [1] = molecular target: human serotonin reuptake transporter (Homo sapiens, UniProt P31645); assay: cell-based
# [2] = molecular target: T1, human dopamine reuptake transporter (Homo sapiens, UniProt Q01959); assay: cell-based; details: read-out: Human IC50 (nM) hDAT
# T1 construct: expressed in transfected cells; host or cells: CHO-K1 or HEK293
# T1 sequence (Q01959 whole entry): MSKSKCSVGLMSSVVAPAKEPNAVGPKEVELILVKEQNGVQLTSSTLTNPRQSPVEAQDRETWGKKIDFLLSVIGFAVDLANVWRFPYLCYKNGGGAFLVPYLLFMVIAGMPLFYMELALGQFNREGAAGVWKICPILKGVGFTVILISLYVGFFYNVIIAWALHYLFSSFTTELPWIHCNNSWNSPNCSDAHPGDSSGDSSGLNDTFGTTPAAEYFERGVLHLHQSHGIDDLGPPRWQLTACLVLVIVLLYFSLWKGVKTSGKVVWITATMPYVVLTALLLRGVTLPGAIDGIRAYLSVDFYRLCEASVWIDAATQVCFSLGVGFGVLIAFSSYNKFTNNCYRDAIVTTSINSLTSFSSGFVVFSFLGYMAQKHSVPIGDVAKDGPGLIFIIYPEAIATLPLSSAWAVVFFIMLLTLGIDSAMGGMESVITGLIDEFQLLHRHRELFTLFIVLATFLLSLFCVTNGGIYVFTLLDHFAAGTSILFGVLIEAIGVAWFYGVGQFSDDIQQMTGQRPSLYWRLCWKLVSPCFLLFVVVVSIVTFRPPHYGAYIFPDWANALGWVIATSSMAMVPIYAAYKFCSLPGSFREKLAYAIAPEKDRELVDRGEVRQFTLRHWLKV
# [3] = Human IC50 (nM) hSERT, recombinant human serotonin transporter (SERT)
# [4] = recombinant human dopamine transporter (DAT)
# [5] = recombinant human serotonin transporter (SERT), read-out: Human IC50 (nM) hSERT
# Sequence of human serotonin reuptake transporter (P31645 whole entry): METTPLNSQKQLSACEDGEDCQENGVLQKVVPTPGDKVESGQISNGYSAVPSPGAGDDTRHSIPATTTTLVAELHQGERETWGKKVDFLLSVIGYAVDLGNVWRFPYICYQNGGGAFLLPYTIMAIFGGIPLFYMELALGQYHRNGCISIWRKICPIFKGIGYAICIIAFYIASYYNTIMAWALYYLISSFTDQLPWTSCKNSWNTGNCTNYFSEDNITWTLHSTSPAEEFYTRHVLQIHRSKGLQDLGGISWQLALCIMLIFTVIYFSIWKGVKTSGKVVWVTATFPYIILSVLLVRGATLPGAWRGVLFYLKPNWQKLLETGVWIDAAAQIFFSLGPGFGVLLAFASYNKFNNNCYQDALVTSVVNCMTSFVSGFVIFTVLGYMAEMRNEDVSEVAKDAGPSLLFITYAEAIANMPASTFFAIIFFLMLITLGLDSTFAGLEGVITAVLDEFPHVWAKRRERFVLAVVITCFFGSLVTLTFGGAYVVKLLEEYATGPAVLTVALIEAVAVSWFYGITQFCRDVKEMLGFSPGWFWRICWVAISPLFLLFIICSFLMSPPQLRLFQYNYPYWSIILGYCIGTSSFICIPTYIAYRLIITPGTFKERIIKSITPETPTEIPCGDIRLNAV
smiles,measurement,setting,value
"CNCC1(c2ccc(Cl)cc2Cl)CCCCC1 [Compound 65, 1-(1-(2,4-dichlorophenyl)cyclohexyl)-N-methylmethanamine]",IC50,[1]; [3],1620 nM
same,IC50,[2]; [4],1940 nM
"CN(C)CC1(c2ccc(Cl)cc2Cl)CCCCC1 [Compound 66, 1-(1-(2,4-dichlorophenyl)cyclohexyl)-N,N-dimethylmethanamine]",IC50,[1]; [3],221 nM
same,IC50,[2]; [4],355 nM
"CNCC1(c2ccc3cc(F)ccc3c2)CCCCC1 [Compound 67, 1-(1-(6-fluoronaphthalen-2-yl)cyclohexyl)-N-methylmethanamine]",IC50,[1]; [3],230 nM
same,IC50,[2]; [4],1760 nM
"CN(C)CC1(c2ccc3cc(F)ccc3c2)CCCCC1 [Compound 68, 1-(1-(6-fluoronaphthalen-2-yl)cyclohexyl)-N,N-dimethylmethanamine]",IC50,[1]; [5],19 nM
same,IC50,[2]; [4],343 nM
"CNCC1(c2ccc(F)c3ccccc23)CCCCC1 [Compound 69, 1-(1-(4-fluoronaphthalen-1-yl)cyclohexyl)-N-methylmethanamine]",IC50,[1]; [5],930 nM
same,IC50,[2]; [4],605 nM
"CN(C)CC1(c2ccc(F)c3ccccc23)CCCCC1 [Compound 70, 1-(1-(4-fluoronaphthalen-1-yl)cyclohexyl)-N,N-dimethylmethanamine]",IC50,[1]; [5],29 nM
same,IC50,[2]; [4],214 nM
"CN(C)CC1(c2ccc(Cl)c(Cl)c2)CC=CCC1 (centres unmarked) [Compound 72, 1-(1-(3,4-dichlorophenyl)cyclohex-3-enyl)-N,N-dimethylmethanamine]",IC50,[1]; Human IC50 (nM) hSERT,136 nM
same,IC50,[2]; [4],1.7 nM
"NCC1(c2ccc(Cl)c(Cl)c2)CCCC1 [Compound 87, (1-(3,4-dichlorophenyl)cyclopentyl)methanamine]",IC50,[1]; [3],1470 nM
same,IC50,[2]; [4],139 nM
"CNCC1(c2ccc(Cl)c(Cl)c2)CCCC1 [Compound 88, (1-(3,4-dichlorophenyl)cyclopentyl)-N-methylmethanamine]",IC50,[1]; Human IC50 (nM) hSERT,829 nM
same,IC50,[2]; [4],93 nM
"CNCC1(c2ccc(F)cc2)CCCCC1 [Compound 90, 1-(1-(4-fluorophenyl)cyclohexyl)-N-methylmethanamine]",IC50,[1]; [3],839 nM
same,IC50,[2]; [4],3360 nM
"NCC1(c2ccc(F)cc2)CCCCC1 [Compound 91, (1-(4-fluorophenyl)cyclohexyl)methaneamine]",IC50,[1]; [3],> 10000 nM
same,IC50,[2]; [4],1830 nM
"CNCC1(c2ccc(Cl)c(F)c2)CCCCC1 [Compound 95, (1-(4-chloro-3-fluorophenyl)cyclohexyl)-N-methylmethanamine]",IC50,[1]; [3],480 nM
same,IC50,[2]; [4],324 nM
"NCC1(c2ccc(Cl)c(F)c2)CCCCC1 [Compound 98, (1-(4-chloro-3-fluorophenyl)cyclohexyl)-methanamine]",IC50,[1]; [3],> 10000 nM
same,IC50,[2]; [4],419 nM
"CNCC1(c2ccc(C(F)(F)F)cc2)CCCCC1 [Compound 100, N-methyl-1-(1-(4-(trifluoromethyl)phenyl)-cyclohexyl)methanamine]",IC50,[1]; [3],1500 nM
same,IC50,[2]; [4],3410 nM
"CN(C)CC1(c2ccc3c(c2)OCO3)CCCCC1 [Compound 102, 1-(1-(benzo[d][1,3]dioxol-5-yl)cyclohexyl)-N,N-dimethylmethanamine]",IC50,[1]; [3],195 nM
same,IC50,[2]; [4],420 nM
"CNCC1(c2ccc3c(c2)OCO3)CCCCC1 [Compound 103, 1-(1-(benzo[d][1,3]dioxol-5-yl)cyclohexyl)-N-methylmethanamine]",IC50,[1]; [3],3540 nM
same,IC50,[2]; [4],7740 nM
"CNCC1(c2ccc(Cl)c(Cl)c2)CC=CC1 [Compound 168, 1-(1-(3,4-dichlorophenyl)cyclopent-3-enyl)-N-methylmethanamine]",IC50,[1]; [3],1470 nM
same,IC50,[2]; [4],108 nM
"NCC1(c2ccc(Cl)c(Cl)c2)CCCC(F)(F)C1 (centres unmarked) [Compound 204, (1-(3,4-dichlorophenyl)-3,3-difluorocyclohexyl)-methanamine]",IC50,[1]; [3],2250 nM
same,IC50,[2]; [4],296 nM
"NCC1(c2ccc3ccccc3c2)CCC(O)CC1 (centres unmarked) [Compound 207, 4-(aminomethyl)-4-(naphthalen-2-yl)cyclohexanol]",IC50,[1]; [5],142 nM
same,IC50,[2]; [4],1020 nM
"NCC1(c2ccc3ccccc3c2)CCC(O)CC1 (centres unmarked) [Compound 208, 4-(aminomethyl)-4-(naphthalen-2-yl)cyclohexanol]",IC50,[1]; [5],1990 nM
same,IC50,[2]; [4],7670 nM
"NCC1(c2ccc3ccccc3c2)CCC(Cl)CC1 (centres unmarked) [Compound 211, (4-chloro-1-(naphthalen-2-yl)cyclohexyl)methanamine]",IC50,[1]; [5],55 nM
same,IC50,[2]; [4],195 nM
"NCC1(c2ccc3ccccc3c2)CCC(F)CC1 (centres unmarked) [Compound 212, (4-fluoro-1-(naphthalen-2-yl)cyclohexyl)methanamine]",IC50,[1]; [5],91 nM
same,IC50,[2]; [4],75 nM
"NCC1(c2ccc3ccccc3c2)CCC(F)CC1 (centres unmarked) [Compound 213, (4-fluoro-1-(naphthalen-2-yl)cyclohexyl)methanamine]",IC50,[1]; [5],283 nM
same,IC50,[2]; [4],337 nM
"NCC1(c2ccc3c(c2)OCO3)CCC(O)CC1 (centres unmarked) [Compound 214, 4-(aminomethyl)-4-(benzo[d][1,3]dioxol-5-yl)cyclohexanol]",IC50,[1]; [5],> 10000 nM
same,IC50,[2]; [4],> 10000 nM
"CC1(O)CCC(CN)(c2ccc3c(c2)OCO3)CC1 (centres unmarked) [Compound 215, 4-(aminomethyl)-4-(benzo[d][1,3]dioxol-5-yl)-1-methylcyclohexanol]",IC50,[1]; [5],4190 nM
same,IC50,[2]; [4],6240 nM
"CC1(O)CCC(CN)(c2ccc3c(c2)OCO3)CC1 (centres unmarked) [Compound 216, 4-(aminomethyl)-4-(benzo[d][1,3]dioxol-5-yl)-1-methylcyclohexanol]",IC50,[1]; [5],> 10000 nM
same,IC50,[2]; [4],> 10000 nM
"NCC1(c2ccc3ccccc3c2)CCC(O)(CF)CC1 (centres unmarked) [Compound 217, 4-(aminomethyl)-1-(fluoromethyl)-4-(naphthalen-2-yl)cyclohexanol]",IC50,[1]; [5],47 nM
same,IC50,[2]; [4],1970 nM
"NCC1(c2ccc3ccccc3c2)CCC(O)(CF)CC1 (centres unmarked) [Compound 218, 4-(aminomethyl)-1-(fluoromethyl)-4-(naphthalen-2-yl)cyclohexanol]",IC50,[1]; [5],480 nM
same,IC50,[2]; [4],5590 nM
"NCC1(c2ccc(OC(F)(F)F)cc2)CCC(O)CC1 (centres unmarked) [Compound 220, 4-(aminomethyl)-4-(4-(trifluoromethoxy)phenyl)cyclohexanol]",IC50,[1]; [5],6150 nM
same,IC50,[2]; [4],> 10000 nM
"NCC1(c2ccc3ccccc3c2)CCC(F)(F)CC1 [Compound 221, (4,4-difluoro-1-(naphthalen-2-yl)cyclohexyl)methanamine]",IC50,[1]; [5],61 nM
same,IC50,[2]; [4],182 nM
"CNCC1(c2ccc3ccccc3c2)CCC(C)(O)CC1 (centres unmarked) [Compound 222, 1-methyl-4-((methylamino)methyl)-4-(naphthalen-2-yl)-cyclohexanol]",IC50,[1]; [5],609 nM
same,IC50,[2],2090 nM
"CNCC1(c2ccc3ccccc3c2)CCC(C)(O)CC1 (centres unmarked) [Compound 223, 1-methyl-4-((methylamino)methyl)-4-(naphthalen-2-yl)cyclohexanol]",IC50,[1]; [5],73 nM
same,IC50,[2],874 nM
"CN(C)CC1(c2ccc3ccccc3c2)CCC(C)(O)CC1 (centres unmarked) [Compound 224, 4-((dimethylamino)methyl)-1-methyl-4-(naphthalen-2-yl)cyclohexanol]",IC50,[1]; [5],69 nM
same,IC50,[2]; [4],993 nM
"CN(C)CC1(c2ccc3ccccc3c2)CCC(O)CC1 (centres unmarked) [Compound 228, 4-((dimethylamino)methyl)-4-(naphthalen-2-yl)cyclohexanol]",IC50,[1]; [5],96 nM
same,IC50,[2],1560 nM
"CN(C)CC1(c2ccc3ccccc3c2)CCC(O)CC1 (centres unmarked) [Compound 229, 4-((dimethylamino)methyl)-4-(naphthalen-2-yl)cyclohexanol]",IC50,[1]; [5],11 nM
same,IC50,[2],40 nM
"CN(C)CC1(c2ccc3ccccc3c2)CCC(Cl)CC1 (centres unmarked) [Compound 230, 1-(4-chloro-1-(naphthalen-2-yl)cyclohexyl)-N,N-dimethylmethanamine]",IC50,[1]; [5],30 nM
same,IC50,[2]; [4],11 nM
"CN(C)CC1(c2ccc3ccccc3c2)CCC(F)CC1 (centres unmarked) [Compound 233, 1-(4-fluoro-1-(naphthalen-2-yl)cyclohexyl)-N,N-dimethylmethanamine]",IC50,[1]; [5],37 nM
same,IC50,[2]; [4],3 nM
"CN(C)CC1(c2ccc3ccccc3c2)CCC(F)CC1 (centres unmarked) [Compound 235, 1-(4-fluoro-1-(naphthalen-2-yl)cyclohexyl)-N,N-dimethylmethanamine]",IC50,[1]; [5],9 nM
same,IC50,[2]; [4],92 nM
"CN(C)CC1(c2ccc3c(c2)OCO3)CCC(O)CC1 (centres unmarked) [Compound 238, 4-(benzo[d][1,3]dioxol-5-yl)-4-((dimethylamino)methyl)cyclohexanol]",IC50,[1]; [5],1180 nM
same,IC50,[2]; [4],5720 nM
"CNCC1(c2ccc3c(c2)OCO3)CCC(C)(O)CC1 (centres unmarked) [Compound 239, 4-(benzo[d][1,3]dioxol-5-yl)-1-methyl-4-((methylamino)methyl)cyclohexanol]",IC50,[1]; [5],8660 nM
same,IC50,[2]; [4],9450 nM
"CN(C)CC1(c2ccc3c(c2)OCO3)CCC(C)(O)CC1 (centres unmarked) [Compound 240, 4-(benzo[d][1,3]dioxol-5-yl)-4-((dimethylamino)methyl)-1-methylcyclohexanol]",IC50,[1]; [5],1810 nM
same,IC50,[2]; [4],9030 nM
"CNCC1(c2ccc3c(c2)OCO3)CCC(C)(O)CC1 (centres unmarked) [Compound 241, 4-(benzo[d][1,3]dioxol-5-yl)-1-methyl-4-((methylamino)methyl)cyclohexanol]",IC50,[1]; [5],> 10000 nM
same,IC50,[2]; [4],> 10000 nM
"CN(C)CC1(c2ccc3c(c2)OCO3)CCC(C)(O)CC1 (centres unmarked) [Compound 242, 4-(benzo[d][1,3]dioxol-5-yl)-4-((dimethylamino)methyl)-1-methylcyclohexanol]",IC50,[1]; [5],7660 nM
same,IC50,[2]; [4],> 10000 nM
"CNCC1(c2ccc3ccccc3c2)CCC(O)(CF)CC1 (centres unmarked) [Compound 243, 1-(fluoromethyl)-4-((methylamino)methyl)-4-(naphthalen-2-yl)cyclohexanol]",IC50,[1]; [5],26 nM
same,IC50,[2]; [4],851 nM
"CN(C)CC1(c2ccc3ccccc3c2)CCC(O)(CF)CC1 (centres unmarked) [Compound 244, 4-((dimethylamino)methyl)-1-(fluoromethyl)-4-(naphthalen-2-yl)cyclohexanol]",IC50,[1]; [5],14 nM
same,IC50,[2]; [4],334 nM
"CNCC1(c2ccc3ccccc3c2)CCC(O)(CF)CC1 (centres unmarked) [Compound 245, 1-(fluoromethyl)-4-((methylamino)methyl)-4-(naphthalen-2-yl)cyclohexanol]",IC50,[1]; [5],538 nM
same,IC50,[2]; [4],2270 nM
